Consider 25 compounds from ChEMBL document CHEMBL3044853, “Anti-HIV-1 and cytotoxicity studies of piperidyl-thienyl chalcones and their 2-pyrazoline derivatives” (Med Chem Res, 2012).

The test system of assay [1] is Human immunodeficiency virus 1. Briefly: Antiviral activity against 0.1 MOI of Human immunodeficiency virus 1 LAI infected human PBM cells after 2 to 3 hr by scintillation counting analysis in presence of [3H]thymidine-5'-triphosphate. The assay is classed as functional, organism-based. The settings on record: PBMC.
The test system of another assay is Vero. Briefly: Cytotoxicity against Chlorocebus aethiops (African green monkey) Vero cells after 5 days celltiter 96 aqueous assay. The assay is classed as cell-based. Particulars: Chlorocebus sabaeus, 120 h.
The next assay deals with PBMC. Briefly: Cytotoxicity against Homo sapiens (human) PBMCs after 5 days celltiter 96 aqueous assay. The assay is classed as cell-based. The settings on record: 120 h.
In the next assay the test system is CCRF-CEM. Briefly: Cytotoxicity against Homo sapiens (human) CEM cells after 5 days celltiter 96 aqueous assay. The assay is classed as cell-based. Particulars: 120 h.

pEC50, pIC50: −log10 of the molar value. Where only a bound is given, the exact number is not on record here.

Turning to `Cc1csc(C(=O)/C=C/c2ccc(N3CCCCC3)cc2)c1`, the pEC50 in assay [1] is 4.94. Also, the concentration for an effect of 90% (EC90) in assay [1] was found to be 23.1 µM. Further, the pIC50 in the assay on Vero was 4.25; in the assay on PBMC, 4.16; in the assay with CCRF-CEM, 4.48.

Regarding `Cc1ccc(C(=O)/C=C/c2ccc(N3CCCCC3)cc2)s1`, the negative logarithm of the EC50 (pEC50) in assay [1] was 4.75. Also, the 90% effect concentration (EC90) in assay [1] worked out at 30.9 µM. The pIC50 in the assay with Vero was 4.30; with PBMC it was 4.11; in the assay on CCRF-CEM, 4.67.

For the compound `Cc1cc(C(=O)/C=C/c2ccc(N3CCCCC3)cc2)c(C)s1`, the pEC50 in assay [1] was 4.94. Besides, the EC90 in assay [1] is 23.6 µM. Moreover, the negative logarithm of the IC50 (pIC50) with Vero is 4.37; in the assay with PBMC, 4.42; with CCRF-CEM, 4.78.

In the case of `O=C(/C=C/c1ccc(N2CCCCC2)cc1)c1sccc1Cl`, the pEC50 in assay [1] is 5.08. Further, the EC90 in assay [1] worked out at 29 µM. Also, the figures for the negative-log IC50 (pIC50) in the assay on Vero, in the assay with PBMC and in the assay with CCRF-CEM were 4.74, 4.49 and 4.91, respectively.

In the case of `O=C(/C=C/c1ccc(N2CCCCC2)cc1)c1ccc(Cl)s1`, the pEC50 in assay [1] was 4.45. Further, in assay [1], the 90% effect concentration (EC90) is at least 100 µM. Besides, the pIC50 was 4.49 with Vero, below 4.00 with PBMC and 4.38 with CCRF-CEM.

Regarding `O=C(/C=C/c1ccc(N2CCCCC2)cc1)c1cc(Cl)sc1Cl`, the negative-log EC50 (pEC50) in assay [1] is 4.93. The 90% effect concentration (EC90) in assay [1] came out at 24.7 µM. In addition, the pIC50 was 4.60 in the assay on Vero, 4.37 in the assay on PBMC and 4.82 in the assay with CCRF-CEM.

As for `O=C(/C=C/c1ccc(N2CCCCC2)cc1)c1sccc1Br`, the pEC50 in assay [1] was 5.24. For the same compound, the EC90 in assay [1] was determined as 27.8 µM. The negative logarithm of the IC50 (pIC50) with Vero is 4.74; in the assay with PBMC, 4.41; in the assay with CCRF-CEM, 4.90.

Take `O=C(/C=C/c1ccc(N2CCCCC2)cc1)c1ccc(Br)s1`: in assay [1], the negative logarithm of the EC50 (pEC50) is 4.33. Moreover, the EC90 in assay [1] is at least 100 µM. The negative logarithm of the IC50 (pIC50) in the assay on Vero was 4.16; in the assay with PBMC, below 4.00; in the assay on CCRF-CEM, 4.28.

Take `O=C(/C=C/c1ccc(N2CCCCC2)cc1)c1ccc(I)s1`: the pEC50 in assay [1] was 4.94. Also, the EC90 in assay [1] is at least 100 µM. Also, the pIC50 with Vero was 4.25; with PBMC it was below 4.00; in the assay on CCRF-CEM, 4.66.

`c1csc(C2=NNC(c3ccc(N4CCCCC4)cc3)C2)c1` (configuration not stated): in assay [1], the pEC50 is 5.14. The EC90 in assay [1] was 26.8 µM. The pIC50 is 5.49 with Vero, 4.68 in the assay on PBMC and 5.16 with CCRF-CEM.

Consider `c1cc(C2=NNC(c3ccc(N4CCCCC4)cc3)C2)cs1` (configuration not stated), for which, in assay [1], the pEC50 was 4.95. Further, the EC90 in assay [1] is at least 100 µM. Further, the negative logarithm of the IC50 (pIC50) was 4.53 in the assay with Vero, below 4.00 in the assay on PBMC and 4.57 in the assay with CCRF-CEM.

As to `Cc1ccsc1C1=NNC(c2ccc(N3CCCCC3)cc2)C1` (configuration not stated), in assay [1], the pEC50 is 5.29. Further, the EC90 in assay [1] was 15.5 µM. Also, the results for the pIC50 in the assay with Vero, with PBMC and in the assay on CCRF-CEM were 4.94, 4.96 and 5.64, respectively.

Take `Cc1csc(C2=NNC(c3ccc(N4CCCCC4)cc3)C2)c1` (configuration not stated): in assay [1], the pEC50 is 4.89. Also, the concentration for an effect of 90% (EC90) in assay [1] turned out to be 24.9 µM. Further, the negative-log IC50 (pIC50) in the assay on Vero is 4.50; in the assay with PBMC, 4.61; in the assay on CCRF-CEM, 4.79.

With `Cc1ccc(C2=NNC(c3ccc(N4CCCCC4)cc3)C2)s1` (configuration not stated), the pEC50 in assay [1] was 5.14. For the same compound, the EC90 in assay [1] was determined as 52.9 µM. Moreover, the negative-log IC50 (pIC50) in the assay on Vero is 4.28; in the assay on PBMC it was 4.06; in the assay with CCRF-CEM, 4.82.

With `Cc1cc(C2=NNC(c3ccc(N4CCCCC4)cc3)C2)c(C)s1` (configuration not stated), in assay [1], the pEC50 is 4.77. Further, the EC90 in assay [1] was 29.8 µM. Further, the negative-log IC50 (pIC50) in the assay with Vero is 4.08; in the assay with PBMC, 4.11; in the assay with CCRF-CEM, 4.70.

Regarding `Clc1ccsc1C1=NNC(c2ccc(N3CCCCC3)cc2)C1` (configuration not stated), the pEC50 in assay [1] was 5.62. The EC90 in assay [1] worked out at 13.1 µM. Further, the values for the negative logarithm of the IC50 (pIC50) in the assay on Vero, with PBMC and in the assay on CCRF-CEM were 4.50, 4.47 and 4.99, respectively.

Regarding `Clc1ccc(C2=NNC(c3ccc(N4CCCCC4)cc3)C2)s1` (configuration not stated), in assay [1], the pEC50 was 4.12. Also, the 90% effect concentration (EC90) in assay [1] is above 100 µM. In addition, the negative logarithm of the IC50 (pIC50) with Vero, in the assay on PBMC and in the assay on CCRF-CEM was below 4.00 throughout.

Regarding `Clc1cc(C2=NNC(c3ccc(N4CCCCC4)cc3)C2)c(Cl)s1` (configuration not stated), the negative logarithm of the EC50 (pEC50) in assay [1] was 4.49. Moreover, the EC90 in assay [1] was above 100 µM. Further, the negative logarithm of the IC50 (pIC50) is 4.27 with Vero, 4.23 in the assay on PBMC and 4.42 with CCRF-CEM.

`Brc1ccsc1C1=NNC(c2ccc(N3CCCCC3)cc2)C1` (configuration not stated): the pEC50 in assay [1] is 4.76. The concentration for an effect of 90% (EC90) in assay [1] is 30.4 µM. Also, the negative logarithm of the IC50 (pIC50) with Vero is 4.61; in the assay on PBMC it was 4.24; in the assay on CCRF-CEM it was 4.50.

For the compound `Brc1ccc(C2=NNC(c3ccc(N4CCCCC4)cc3)C2)s1` (configuration not stated), the negative logarithm of the EC50 (pEC50) in assay [1] was 5.05. The concentration for an effect of 90% (EC90) in assay [1] was determined as 33.3 µM. The pIC50 was 4.59 in the assay on Vero, 4.10 with PBMC and 4.67 in the assay with CCRF-CEM.

As to `Ic1ccc(C2=NNC(c3ccc(N4CCCCC4)cc3)C2)s1` (configuration not stated), in assay [1], the negative logarithm of the EC50 (pEC50) was 4.84. In assay [1], the EC90 was 43.6 µM. Besides, the figures for the negative logarithm of the IC50 (pIC50) in the assay with Vero, in the assay with PBMC and with CCRF-CEM were 4.80, below 4.00 and 4.44, respectively.

Turning to `O=C(/C=C/c1ccc(N2CCCCC2)cc1)c1cccs1`, in assay [1], the pEC50 is 4.13. In addition, the 90% effect concentration (EC90) in assay [1] is at least 100 µM. In addition, the pIC50 is 4.18 in the assay with Vero, below 4.00 in the assay with PBMC and 4.94 with CCRF-CEM.

As for `O=C(/C=C/c1ccc(N2CCCCC2)cc1)c1ccsc1`, the pEC50 in assay [1] was 4.25. For the same compound, in assay [1], the 90% effect concentration (EC90) was at least 100 µM. Also, the pIC50 in the assay on Vero is 4.46; in the assay with PBMC, below 4.00; with CCRF-CEM, 4.49.

Consider `Cc1ccsc1C(=O)/C=C/c1ccc(N2CCCCC2)cc1`, for which the pEC50 in assay [1] is 5.60. In addition, the concentration for an effect of 90% (EC90) in assay [1] was found to be 19.6 µM. The pIC50 with Vero was 4.19; in the assay on PBMC it was 4.58; with CCRF-CEM, 5.00.

Turning to `Cc1cn([C@H]2C[C@H](N=[N+]=[N-])[C@@H](CO)O2)c(=O)[nH]c1=O` [ZIDOVUDINE], the EC90 in assay [1] stood at 0.026 µM. The negative-log IC50 (pIC50) in the assay with PBMC was below 4.00.

A word on the pEC50: it is the negative decadic logarithm of the EC50, by convention in mol/L. The EC90 is the concentration needed for an effect of 90%. One may read the pIC50 as the negative decadic logarithm of the IC50, by convention in mol/L. The low end stands for a large IC50, the high end for a small IC50.
